For twelve compounds, ED50 results are on record in US4032529A, “Aminomethanobenzazocine intermediates” (Sterling Drug Inc., priority 1975, dated 1977).

Where a name gives a salt, the structure may show the parent alone.

For the assay, the system named is acetylcholine-induced writhing in mice. Nature of the assay: acetylcholine writhing test, a primary screening test for analgesia. The format is in vivo. The conditions noted are these: Mus musculus, sc, 20 min; subcutaneous; mice dosed 20 minutes prior to acetylcholine 3.2 mg./kg. intraperitoneal; 2-minute observation; probit analysis. The protocol:
All of the compounds of Formula I of the examples were tested and determined to be active in the acetylcholine writhing test, a primary screening test for analgesia. In this test the ability of test compounds to prevent acetylcholine-induced writhing in mice is determined. The following is an adaptation of the method of Collier and co-workers (Brit. J. Pharmacol. Chemother., 32, 295(1968)) by Anne K. Pierson. […] The mice are dosed with the test compound plus vehicle or vehicle alone (controls) 20 minutes prior to, and are observed for 2 minutes after, the acetylchloine injection. During the 2-minute observation period mice not responding by writhing are scored protected and mice responding by writhing one or more times are scored not protected. The mice are dosed orally (usually at 150-200 mg./kg.) or subcutaneously (usually at 75-100 mg./kg.). Fifteen mice per does level are used. ED50 values for active compounds are calculated by probit analysis (C. I. Bliss, The Statistics of Bioassay, Academic Press, New York, 1952) of quantal scores of tests at four or more appropriate dose levels. The following subcutaneous ED50 values for the compounds of Formula I of the examples were determined.
`C[C@@H]1[C@@H]2Cc3ccc(NCc4ccccc4)cc3[C@@]1(C)CCN2CC1CC1` (relative stereo) [Example 7, 3-(cyclopropylmethyl)-1,2,3,4,5,6-hexahydro-cis-6,11-dimethyl-8-benzylamino-2,6-methano-3-benzazocine dihydrochloride] displayed an ED50 of 1.6 mg/kg.

Consider `CCCCNc1ccc2c(c1)[C@@]1(C)CCN(CC3CC3)[C@@H](C2)[C@H]1C` (relative stereo) [Example 11B, 8-(butylamino)-3-(cyclopropylmethyl)-1,2,3,4,5,6-hexahydro-cis-6,11-dimethyl-2,6-methano-3-benzazocine], for which it took a dose of 1 mg/kg to reach the 50% effect level (ED50).

Compound `C=CCN1CC[C@]2(C)c3cc(N)ccc3C[C@H]1[C@H]2C` (relative stereo) [Example 8C, 8-amino-1,2,3,4,5,6-hexahydro-cis-6,11-dimethyl-3-(2-propenyl)-2,6-methano-3-benzazocine dihydrochloride] registered an ED50 of 2.5 mg/kg.

Take `C[C@@H]1[C@@H]2Cc3ccc(NCC4CC4)cc3[C@@]1(C)CCN2CC1CC1` (relative stereo) [Example 2E, 3-(cyclopropylmethyl)-8-(cyclopropylmethylamino)-1,2,3,4,5,6-hexahydro-cis-6,11-dimethyl-2,6-methano-3-benzazocine hydrochloride]: the ED50 came to 0.7 mg/kg.

In turn, `C[C@@H]1[C@@H]2Cc3ccc(N(C)C)cc3[C@@]1(C)CCN2CC1CC1` (relative stereo) [Example 4F, 3-cyclopropylmethyl-8-dimethylamino-cis-6,11-dimethyl-1,2,3,4,5,6-hexahydro-2,6-methano-3-benzazocine dihydrochloride] displayed an ED50 of 0.79 mg/kg.

In the case of `CC(C)CN1CC[C@]2(C)c3cc(N)ccc3C[C@H]1[C@H]2C` (relative stereo) [Example 5C, 8-amino-1,2,3,4,5,6-hexahydro-3-isobutyl-cis-6,11-dimethyl-2,6-methano-3-benzazocine dihydrochloride], the ED50 was determined as 1.5 mg/kg.

On to `CCNc1ccc2c(c1)[C@@]1(C)CCN(CC3CC3)[C@@H](C2)[C@H]1C` (relative stereo) [Example 9B, 3-(cyclopropylmethyl)-8-(ethylamino)-1,2,3,4,5,6-hexahydro-cis-6,11-dimethyl-2,6-methano-3-benzazocine], for which it took a dose of 1.3 mg/kg to reach the 50% effect level (ED50).

Compound `CNc1ccc2c(c1)[C@@]1(C)CCN(CC3CC3)[C@@H](C2)[C@H]1C` (relative stereo) [Example 3B, 3-(cyclopropylmethyl)-1,2,3,4,5,6-hexahydro-cis-6,11-dimethyl-8-(methylamino)-2,6-methano-3-benzazocine dihydrochloride ethanolate hydrate] returned an ED50 of 0.44 mg/kg.

Consider `CCCN1CC[C@]2(C)c3cc(N)ccc3C[C@H]1[C@H]2C` (relative stereo) [Example 6C, 8-amino-cis-6,11-dimethyl-1,2,3,4,5,6-hexahydro-3-propyl-2,6-methano-3-benzazocine dihydrochloride sesquihydrate], for which the 50% effect level (ED50) was put at a dose of 5.6 mg/kg.

The compound `C[C@@H]1[C@@H]2Cc3ccc(N)cc3[C@@]1(C)CCN2CC1CC1` (relative stereo) [Example 1B, 8-amino-3-(cyclopropylmethyl)-1,2,3,4,5,6-hexahydro-cis-6,11-dimethyl-2,6-methano-3-benzazocine dihydrochloride] gave an ED50 of 0.8 mg/kg.

The compound `CCCNc1ccc2c(c1)[C@@]1(C)CCN(CC3CC3)[C@@H](C2)[C@H]1C` (relative stereo) [Example 10B, 3-(cyclopropylmethyl)-1,2,3,4,5,6-hexahydro-cis-6,11-dimethyl-8-(propylamino)-2,6-methano-3-benzazocine] came in with an ED50 of 1.2 mg/kg.

`CC[C@@H]1[C@@H]2Cc3ccc(N)cc3[C@@]1(CC)CCN2CC1CC1` (relative stereo) [Example 12H, 8-amino-3-(cyclopropylmethyl)-cis-6,11-diethyl-1,2,3,4,5,6-hexahydro-2,6-methano-3-benzazocine dihydrochloride] showed an ED50 of 1.3 mg/kg.
